# Test results as given in patent publication US9624214B2, “Amino-substituted imidazo[1,2-a]pyridinecarboxamides and their use” (BAYER PHARMA AKTIENGESELLSCHAFT, priority 2012, dated 2017).
# Structures can show the parent of a compound that is named as a salt.
# Biological target: T1, recombinant guanylate cyclase reporter cell line (Rattus norvegicus, UniProt P19686+P20595)
# T1 construct: expressed in transfected cells
# T1 sequence (P20595 1-619): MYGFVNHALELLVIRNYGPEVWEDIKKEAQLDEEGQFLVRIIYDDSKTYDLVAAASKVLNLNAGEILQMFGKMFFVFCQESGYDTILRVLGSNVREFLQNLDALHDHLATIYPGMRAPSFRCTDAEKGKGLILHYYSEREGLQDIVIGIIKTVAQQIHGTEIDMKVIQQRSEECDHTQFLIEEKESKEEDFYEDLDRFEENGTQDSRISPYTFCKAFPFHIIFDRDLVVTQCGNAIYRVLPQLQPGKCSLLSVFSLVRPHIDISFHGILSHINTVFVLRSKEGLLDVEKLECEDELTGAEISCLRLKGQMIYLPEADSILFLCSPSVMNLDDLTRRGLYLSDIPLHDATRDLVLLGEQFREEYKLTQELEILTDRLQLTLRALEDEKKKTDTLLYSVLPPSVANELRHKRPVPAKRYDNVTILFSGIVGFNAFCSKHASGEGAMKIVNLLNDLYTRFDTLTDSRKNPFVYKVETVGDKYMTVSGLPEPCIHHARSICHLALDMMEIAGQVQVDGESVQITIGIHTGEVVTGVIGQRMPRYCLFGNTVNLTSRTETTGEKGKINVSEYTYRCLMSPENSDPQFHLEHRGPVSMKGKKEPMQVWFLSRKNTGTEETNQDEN
# T1 sequence (P19686 1-690): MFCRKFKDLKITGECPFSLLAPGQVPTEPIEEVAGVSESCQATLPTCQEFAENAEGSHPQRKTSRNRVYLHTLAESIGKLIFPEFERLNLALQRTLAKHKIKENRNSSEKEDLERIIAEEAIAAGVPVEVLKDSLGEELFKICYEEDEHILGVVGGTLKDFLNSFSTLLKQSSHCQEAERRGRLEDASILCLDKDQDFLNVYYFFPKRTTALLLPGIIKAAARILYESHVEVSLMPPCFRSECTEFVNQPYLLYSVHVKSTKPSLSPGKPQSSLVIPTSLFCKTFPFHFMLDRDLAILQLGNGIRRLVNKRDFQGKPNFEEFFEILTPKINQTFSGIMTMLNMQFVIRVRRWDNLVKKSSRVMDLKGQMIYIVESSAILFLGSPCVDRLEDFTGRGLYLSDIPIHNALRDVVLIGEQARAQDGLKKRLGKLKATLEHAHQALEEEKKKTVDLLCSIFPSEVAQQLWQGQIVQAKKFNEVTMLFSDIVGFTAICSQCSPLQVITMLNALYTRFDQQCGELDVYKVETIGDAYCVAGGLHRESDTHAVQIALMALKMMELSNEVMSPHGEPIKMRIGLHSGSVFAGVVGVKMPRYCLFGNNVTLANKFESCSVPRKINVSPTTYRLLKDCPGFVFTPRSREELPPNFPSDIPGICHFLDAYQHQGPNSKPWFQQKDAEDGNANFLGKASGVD
# Assay: B-2. Action on recombinant guanylate cyclase reporter cell line
# Format: cell-based
# Conditions: MEC = minimal effective concentration; in some cases mean values from individual determinations
# In short: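 Reported value is the minimal effective concentration (MEC), in some cases a mean of single runs, taken from a recombinant rat guanylate cyclase reporter cell line.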
row,MEC [µM],Compound
1,0.3,"CCC(C)(N)CNC(=O)c1c(C)nc2c(OCc3c(F)cccc3F)cc(C(F)F)cn12 (single isomer, unassigned; enantiomer a) [Example 288, ent-N-(2-amino-2-methylbutyl)-8-[(2,6-difluorobenzyl)oxy]-6-(difluoromethyl)-2-methylimidazo[1,2-a]pyridine-3-carboxamide (Enantiomer A)]"
2,1.66,"Cc1nc2c(OCc3c(F)cccc3F)cccn2c1C(=O)NC(C)CN (single isomer, unassigned; enantiomer a) [Example 19, ent-N-(1-Aminopropan-2-yl)-8-[(2,6-difluorobenzyl)oxy]-2-methylimidazo[1,2-a]pyridine-3-carboxamide (Enantiomer A)]"
3,0.10,"Cc1nc2c(OCc3c(F)cccc3F)cc(Cl)cn2c1C(=O)NCC1(N)CC1 [Example 39, N-[(1-aminocyclopropyl)methyl]-6-chloro-8-[(2,6-difluorobenzyl)oxy]-2-methylimidazo[1,2-a]pyridine-3-carboxamide]"
4,0.10,"Cc1cc(OCc2c(F)cccc2F)c2nc(C)c(C(=O)NCC3CSCCN3)n2c1 (racemic) [Example 366, rac-8-[(2,6-difluorobenzyl)oxy]-2,6-dimethyl-N-(thiomorpholin-3-ylmethyl)imidazo[1,2-a]pyridine-3-carboxamide]"
5,0.30,"Cc1cc(OCc2c(F)cccc2F)c2nc(C)c(C(=O)NCC(C)(C)NCC(F)(F)F)n2c1 [Example 94, 8-[(2,6-Difluorobenzyl)oxy]-2,6-dimethyl-N-{2-methyl-2-[(2,2,2-trifluoroethyl)amino]propyl}-imidazo[1,2-a]pyridine-3-carboxamide]"
6,1.00,"Cc1nc2c(OCc3c(F)cccc3F)cccn2c1C(=O)NCCN1CCN(C2CC2)CC1 [Example 168, N-[2-(4-Cyclopropylpiperazin-1-yl)ethyl]-8-[(2,6-difluorobenzyl)oxy]-2-methylimidazo[1,2-a]-pyridine-3-carboxamide]"
7,10.0,"Cc1cc(OCc2c(F)cccc2F)c2nc(C)c(C(=O)NC(CN)c3cnn(C)c3)n2c1 (racemic) [Example 387, rac-N-[2-amino-1-(1-methyl-1H-pyrazol-4-yl)ethyl]-8-[(2,6-difluorobenzyl)oxy]-2,6-dimethylimidazo[1,2-a]pyridine-3-carboxamide]"
8,3.00,"COc1cccc(F)c1COc1cc(C)cn2c(C(=O)NCC(C)(C)N)c(C)nc12 [Example 352, N-(2-amino-2-methylpropyl)-8-[(2-fluoro-6-methoxybenzyl)oxy]-2,6-dimethylimidazo[1,2-a]pyridine-3-carboxamide]"
9,0.065,"COC(=O)[C@@H](N)CCCCNC(=O)c1c(C)nc2c(OCc3c(F)cccc3F)cc(C)cn12 [Example 294, Methyl N^6-({8-[(2,6-difluorobenzyl)oxy]-2,6-dimethylimidazo[1,2-a]pyridin-3-yl}carbonyl)-L-lysinate]"
10,0.10,"CCC(N)(CC)CNC(=O)c1c(C)nc2c(OCc3c(F)cccc3F)cccn12 [Example 253, N-(2-Amino-2-ethylbutyl)-8-[(2,6-difluorobenzyl)oxy]-2-methylimidazo[1,2-a]pyridine-3-carboxamide]"
11,0.10,"Cc1cc(OCc2c(F)cccc2F)c2nc(C)c(C(=O)NCC(C)(N)C3CC3)n2c1 (single isomer, unassigned; enantiomer a) [Example 260, ent-N-(2-Amino-2-cyclopropylpropyl)-8-[(2,6-difluorobenzyl)oxy]-2,6-dimethylimidazo[1,2-a]-pyridine-3-carboxamide (Enantiomer A)]"
12,0.1,"Cc1cc(OCc2c(F)ccc(F)c2F)c2nc(C)c(C(=O)NCC(C)(N)CF)n2c1 (single isomer, unassigned; enantiomer b) [Example 286, ent-N-(2-amino-3-fluoro-2-methylpropyl)-2,6-dimethyl-8-[(2,3,6-trifluorobenzyl)oxy]imidazo[1,2-a]pyridine-3-carboxamide (Enantiomer B)]"
13,0.30,"Cc1nc2c(OCC3CCCCC3)cccn2c1C(=O)NC(CN)c1ccccc1 (racemic) [Example 44, rac-N-(2-Amino-1-phenylethyl)-8-(cyclohexylmethoxy)-2-methylimidazo[1,2-a]pyridine-3-carboxamide]"
14,1.00,"Cc1nc2c(OCc3c(F)cccc3F)cccn2c1C(=O)NC1CNCc2ccccc21 (single isomer, unassigned; ent-8) [Example 109, ent-8-[(2,6-difluorobenzyl)oxy]-2-methyl-N-(1,2,3,4-tetrahydroisoquinolin-4-yl)imidazo[1,2-a]pyridine-3-carboxamide]"
15,1.00,"Cc1nc2c(OCc3c(F)cccc3F)cccn2c1C(=O)NC1CCN(Cc2ccccc2)C1 (racemic) [Example 85, rac-N-(1-benzylpyrrolidin-3-yl)-8-[(2,6-difluoro-benzyl)oxy]-2-methylimidazo[1,2-a]-pyridine-3-carboxamide]"
16,0.10,"Cc1cc(OCc2c(F)cccc2F)c2nc(C)c(C(=O)NCCN3CCOCC3)n2c1 [Example 136, 8-[(2,6-difluorobenzyl)oxy]-2,6-dimethyl-N-[2-(morpholin-4-yl)ethyl]imidazo[1,2-a]pyridine-3-carboxamide]"
17,3.00,"Cc1cc(OC(C)c2c(F)cccc2F)c2nc(C)c(C(=O)NCC(C)(C)N)n2c1 (single isomer, unassigned; enantiomer b) [Example 256, ent-N-(2-Amino-2-methylpropyl)-8-[1-(2,6-difluorophenyl)ethoxy]-2,6-dimethylimidazo[1,2-a]-pyridine-3-carboxamide (Enantiomer B)]"
18,0.30,"COCC(CN)NC(=O)c1c(C)nc2c(OCc3c(F)cccc3F)cc(C)cn12 (single isomer, unassigned) [Example 210, ent-N-(1-amino-3-methoxypropan-2-yl)-8-[(2,6-difluorobenzyl)oxy]-2,6-dimethylimidazo[1,2-a]-pyridine-3-carboxamide Trifluoroacetate]"
19,0.30,"CCCC[C@H](CN1CCN(C)CC1)NC(=O)c1c(C)nc2c(OCc3c(F)cccc3F)cccn12 [Example 67, ent-8-[(2,6-difluorobenzyl)oxy]-2-methyl-N-[(2R)-1-(4-methylpiperazin-1-yl)hexan-2-yl]imidazo[1,2-a]pyridine-3-carboxamide]"
20,0.10,"Cc1nc2c(OCc3c(F)cccc3F)cccn2c1C(=O)NC1CC(C)(C)N(C)C(C)(C)C1 [Example 83, 8-[(2,6-difluorobenzyl)oxy]-2-methyl-N-(1,2,2,6,6-pentamethylpiperidin-4-yl)imidazo[1,2-a]pyridine-3-carboxamide]"
21,1.00,"Cc1cc(OCc2c(F)cccc2F)c2nc(C)c(C(=O)NC3CCC3(C)N)n2c1 (single isomer, unassigned; enantiomer a) [Example 332, ent-N-[2-amino-2-methylcyclobutyl]-8-[(2,6-difluorobenzyl)oxy]-2,6-dimethylimidazo[1,2-a]pyridine-3-carboxamide (Enantiomer A)]"
22,3.00,"Cc1nc2c(OCc3c(F)cccc3F)cccn2c1C(=O)NC(CN1CCOCC1)c1ccccc1 (racemic) [Example 134, rac-8-[(2,6-difluorobenzyl)oxy]-2-methyl-N-[2-(morpholin-4-yl)-1-phenylethyl]imidazo[1,2-a] - pyridine-3-carboxamide]"
23,1.00,"Cc1nc2c(OCc3c(F)cccc3F)cc(Cl)cn2c1C(=O)NCC1CCCCN1 (single isomer, unassigned; ent-6) [Example 190, ent-6-Chloro-8-[(2,6-difluorobenzyl)oxy]-2-methyl-N-(piperidin-2-ylmethyl)imidazo[1,2-a]-pyridine-3-carboxamide]"
24,0.30,"Cc1nc2c(OCc3c(F)ccc(F)c3F)cccn2c1C(=O)NC(CN)c1ccc(F)c(F)c1 (stereo not drawn) [Example 100, ent-N-[2-amino-1-(3,4-difluorophenyl)ethyl]-2-methyl-8-[(2,3,6-trifluorobenzyl)oxy] imidazo[1,2-a]pyridine-3-carboxamide]"
